Marks after values point to notes of the source that are not given here. Where no end group is shown, it is not given here.
Columns and labels:
[1] = test system: Patients with BPH and who optionally also had LUTS; assay: Clinical trial: inability to provide urine volume >125 mL (Qmax unable / Qmax failure) after intraprostatic injection; format: in vivo, human
Method: (§1) Clinical trials were conducted on numerous individuals having BPH, some of whom also had LUTS. All protocols were done in accordance with applicable regulations, and carried out by physicians.
Patients with BPH and who optionally also had LUTS were given an intraprostatic injection of either a) FT 2.5 mg in phosphate buffered saline pH 7.2 (“PBS”) or b) PBS alone, under double-blind conditions by a urologist in an office setting under ultrasound guidance. Patients were followed for 12 months to several years with regular physical examinations, laboratory tests, and evaluations of symptoms. Urinary peak flow (Qmax) was measured by flow meter readings using standard techniques, at baseline, and at 12 months in subjects who were able to urinate adequate volume of urine (>125 mL) to provide a valid test. Subjects who were unable to void >=125 mL despite drinking as much water as they wanted were classified as “Qmax unable.” The numbers of subjects who became Qmax unable was compared in different groups.

[2] = test system: Patients with BPH and who optionally also had LUTS; assay: Clinical trial: deterioration/worsening in urinary peak flow rate (Qmax worsening) after intraprostatic injection; format: in vivo, human
Method: as §1
Patients with BPH and who optionally also had LUTS were given an intraprostatic injection of either a) FT 2.5 mg in phosphate buffered saline pH 7.2 (“PBS”) or b) PBS alone, under double-blind conditions by a urologist in an office setting under ultrasound guidance. Patients were followed for 12 months to several years with regular physical examinations, laboratory tests, and evaluations of symptoms. Urinary peak flow (Qmax) was measured by flow meter readings using standard techniques, at 3 months and at 12 months.

[3] = test system: Patients with BPH and who optionally also had LUTS; assay: Clinical trial: nocturia frequency by patient questionnaires after intraprostatic injection; format: in vivo, human
Source text: Improvements in obstructive and irritative symptoms can be measured in accordance with techniques known in the art. For example, uroflowmeters are known to differentiate urine weight change to provide a continuous plot of the flow rate vs. time that is smoothed by internal electronic filtering to permit precise (±5%) measurement of Qmax. Schafer W, et al. “Good urodynamic practices: Uroflowmetry, filling cystometry and pressure-flow studies,” Neurourol Urodynamics, Vol. 21, pp. 261-74 (2002). Nocturia can be measured in a variety of manners, most of which involve patients completing a questionnaire before and after treatment to establish a baseline, and then determine the difference (improvement, lack of improvement, worsening, etc.) from baseline after treatment. Exemplary questionnaires include evaluating the scores from the nocturia question included in the International Prostate Symptom Score (IPSS), assessing the number of nocturnal voids (Boyarsky symptom score), the Madsen-Iversen Symptom Score, and the ICSmale questionnaire. See, e.g., Chartier-Kastler, et al., “The Measurement of Nocturia and its Impact on Quality of Sleep and Quality of Life in LUTS/BPH,” Eur. Urol. Supp., Vol. 5, pp. 3-11 (2006). A preferred method of measuring nocturia is by determining the mean change from baseline of the nocturia question in the IPSS (question 7). Question 7 solicits from the patient how many times over the past month they had to get up to urinate from the time they went to bed until the time they got up—the score ranging from none (score 0) to 5 or more times (score 5).
as §1
Patients with BPH and who optionally also had LUTS were given an intraprostatic injection of either a FT2.5 in 10 mL phosphate buffered saline pH 7.2 (“PBS”) or PBS 10 mL alone, under double-blind conditions by a urologist in an office setting under ultrasound guidance. Patients were followed for 12 months with regular physical examinations, laboratory tests, and evaluations of symptoms. The mean frequency of nocturia in the prior month was recorded in patient questionnaires.

[4] = test system: prostate glandular epithelial cells; assay: In vitro tissue culture genetic array: apoptosis pathway activation; format: cell-based
Source text: FT is a new molecular entity which in vitro stimulates caspase pathways (activation of caspases 7, 8, and 10, caspase recruitment domains 6, 11, and 14, and DIABLO), tumor necrosis factor pathways (activation of TNF1, TNFSF6, TNFSF8, TNFSF9, CD70 ligands, and TNFRSF19L, TNFRSF25, TRAF2, TRAF3, TRAF4, TRAF6 receptors), and BCL pathways (activation of BIK, HRK, BCL2L10 and BCL3) in prostate glandular epithelial cells, based on tissue culture genetic array data. FT selectively causes loss of cell membrane integrity, mitochondrial metabolic arrest, depletion of RNA, DNA lysis and aggregation, and cell fragmentation and cell loss. The apoptotic process leads to typical ultrastructural progressive changes of membranous disruption and swelling, progressively deepening nuclear invaginations with eventual membranous bleb formations and cell death and fragmentation into apoptotic bodies. Histologically, typical apoptotic changes with positive immunohistochemical staining of markers for apoptosis are found throughout the injected areas for up to several weeks after treatment.

[5] = about 3 months after single dose of FT ≥2.5 mg, vs control

Fexapotide Triflutate (IDQQVLSRIKLEIKRCL; also: trifluoroacetate salt) [FT]
% of Qmax Unable at 12 months (% of patients with inability to provide urine volume >125 mL) ([1]; 12 months after single intraprostatic dose of 2.5 mg FT, placebo 5.9%): 4.5% | mean flow rate improvements, FT treated patients versus controls ([1]; Qmax at baseline and 12 months, FT 2.5 mg vs PBS): similar | percent decrease in patients unable to provide urine volume ≥125 ml compared to control [1, 5]: ≈ 10% | percentage of patients unable to provide a urine volume of ≥125 ml ([1]; about 3 months after single dose of FT ≥2.5 mg, control 4.3%): 3.9% | % of Qmax Worsening at 12 months ([2]; 12 months after single intraprostatic dose of 2.5 mg FT, placebo 42%, p = 0.0239): 35% | flow rate mean improvements, FT treated group versus control group ([2]; Qmax at 3 months and 12 months, FT 2.5 mg vs PBS): similar | percent decrease in patients with deterioration/worsening in peak flow rate compared to control [2, 5]: ≈ 5.1% | percentage of patients who showed deterioration/worsening in peak flow rate ([2]; about 3 months after single dose of FT ≥2.5 mg, control 37%): 35.2% | improvement in percentage of patients with Nocturia frequency change >0 from baseline to 12 months compared to control ([3]; 12 months after single dose of 2.5 mg FT, vs vehicle control): about 36% | mean improvement in frequency of nocturia per night, FT treated subjects versus controls ([3]; 12 months follow-up, FT 2.5 mg vs PBS): similar | improvement in mean nocturia frequency points improvement from baseline versus control ([3]; after 3 months, single dose of FT 2.5 mg, not significantly better than control): ~8% | % of Patients With Nocturia Frequency Change >0 from Baseline to 12 Months ([3]; single intraprostatic dose of 2.5 mg FT, placebo 19.19%, p = 0.0425 vs. Vehicle alone): 14.15%* | BCL pathways (activation of BIK, HRK, BCL2L10 and BCL3) [4]: stimulates | caspase pathways (activation of caspases 7, 8, and 10, caspase recruitment domains 6, 11, and 14, and DIABLO) [4]: stimulates | tumor necrosis factor pathways (activation of TNF1, TNFSF6, TNFSF8, TNFSF9, CD70 ligands, TNFRSF19L, TNFRSF25, TRAF2, TRAF3, TRAF4, TRAF6 receptors) [4]: stimulates
